What was measured:
[1] = Half life in Sprague-Dawley rat at 5 mg/kg, po by LC-MS/MS analysis; assay type: ADME, organism-based; conditions: in vivo
[2] = AUC (0 to t) in Sprague-Dawley rat at 5 mg/kg, po by LC-MS/MS analysis; assay type: ADME, organism-based; conditions: in vivo
[3] = AUC (0 to t) in Sprague-Dawley rat at […], iv by LC-MS/MS analysis; assay type: ADME, organism-based; conditions: in vivo
[4] = AUC (0 to infinity) in Sprague-Dawley rat at […], iv by LC-MS/MS analysis; assay type: ADME, organism-based; design: dose 2.5 mg/kg, time infinity, route intravenous; conditions: in vivo
[5] = MRT (0 to t) in Sprague-Dawley rat at […], iv by LC-MS/MS analysis; assay type: ADME, organism-based; conditions: in vivo
[6] = biological target: cGMP-dependent 3',5'-cyclic phosphodiesterase (Homo sapiens, UniProt O00408); assay: Inhibition of PDE2A (580 to 919 residues) (unknown origin) expressed in Escherichia coli BL21(DE3) using [3H]cGMP or [3H]cAMP as substrate after 15 mins by liquid scintillation counting method
cGMP-dependent 3',5'-cyclic phosphodiesterase, sequence (O00408 whole entry, the tested form may be a part): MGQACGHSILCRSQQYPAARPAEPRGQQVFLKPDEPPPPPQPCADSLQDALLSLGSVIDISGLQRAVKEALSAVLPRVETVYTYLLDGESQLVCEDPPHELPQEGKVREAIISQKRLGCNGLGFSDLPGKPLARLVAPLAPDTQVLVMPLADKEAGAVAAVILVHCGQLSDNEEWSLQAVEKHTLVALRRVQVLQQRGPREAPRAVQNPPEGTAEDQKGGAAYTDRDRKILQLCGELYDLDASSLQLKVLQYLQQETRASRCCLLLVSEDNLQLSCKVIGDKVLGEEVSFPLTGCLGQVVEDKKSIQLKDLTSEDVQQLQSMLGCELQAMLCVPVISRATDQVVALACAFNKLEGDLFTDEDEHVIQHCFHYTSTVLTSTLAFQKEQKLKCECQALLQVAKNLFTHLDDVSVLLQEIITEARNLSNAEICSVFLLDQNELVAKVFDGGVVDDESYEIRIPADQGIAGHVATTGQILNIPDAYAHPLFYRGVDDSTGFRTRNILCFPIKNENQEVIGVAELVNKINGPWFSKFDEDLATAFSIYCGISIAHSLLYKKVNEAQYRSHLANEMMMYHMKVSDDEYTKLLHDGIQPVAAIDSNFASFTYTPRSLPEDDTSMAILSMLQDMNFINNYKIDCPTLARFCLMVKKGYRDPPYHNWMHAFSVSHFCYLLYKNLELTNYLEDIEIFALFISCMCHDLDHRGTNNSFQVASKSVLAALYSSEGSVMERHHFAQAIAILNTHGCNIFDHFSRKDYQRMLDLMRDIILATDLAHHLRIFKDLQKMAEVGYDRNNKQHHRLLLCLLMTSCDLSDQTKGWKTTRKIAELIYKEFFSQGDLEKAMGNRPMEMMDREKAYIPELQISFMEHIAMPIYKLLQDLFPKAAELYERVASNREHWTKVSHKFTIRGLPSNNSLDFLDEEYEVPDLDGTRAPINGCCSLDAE

[7] = biological target: High affinity 3',5'-cyclic-AMP phosphodiesterase 7A (Homo sapiens, UniProt Q13946); assay: Inhibition of PDE7A1 (130 to 482 residues) (unknown origin) expressed in Escherichia coli BL21(DE3) using [3H]cGMP or [3H]cAMP as substrate after 15 mins by liquid scintillation counting method
High affinity 3',5'-cyclic-AMP phosphodiesterase 7A, sequence (Q13946 whole entry, the tested form may be a part): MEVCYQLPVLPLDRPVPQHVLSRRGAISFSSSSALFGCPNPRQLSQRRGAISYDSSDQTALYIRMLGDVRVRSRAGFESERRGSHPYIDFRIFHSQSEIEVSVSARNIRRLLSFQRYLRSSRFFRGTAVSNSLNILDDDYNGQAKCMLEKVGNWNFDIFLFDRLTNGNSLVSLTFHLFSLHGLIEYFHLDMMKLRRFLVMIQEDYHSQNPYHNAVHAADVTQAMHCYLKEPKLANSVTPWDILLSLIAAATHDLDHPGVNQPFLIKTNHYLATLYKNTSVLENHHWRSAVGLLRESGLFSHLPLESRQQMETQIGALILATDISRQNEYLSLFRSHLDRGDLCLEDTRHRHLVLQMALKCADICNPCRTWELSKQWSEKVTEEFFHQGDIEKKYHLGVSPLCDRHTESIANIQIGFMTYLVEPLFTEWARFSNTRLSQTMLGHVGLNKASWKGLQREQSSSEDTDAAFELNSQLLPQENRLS

[8] = biological target: High affinity cAMP-specific and IBMX-insensitive 3',5'-cyclic phosphodiesterase 8A (Homo sapiens, UniProt O60658); assay: Inhibition of PDE8A1 (480 to 820 residues) (unknown origin) using [3H]cGMP or [3H]cAMP as substrate after 15 mins by liquid scintillation counting method
High affinity cAMP-specific and IBMX-insensitive 3',5'-cyclic phosphodiesterase 8A, sequence (O60658 whole entry, the tested form may be a part): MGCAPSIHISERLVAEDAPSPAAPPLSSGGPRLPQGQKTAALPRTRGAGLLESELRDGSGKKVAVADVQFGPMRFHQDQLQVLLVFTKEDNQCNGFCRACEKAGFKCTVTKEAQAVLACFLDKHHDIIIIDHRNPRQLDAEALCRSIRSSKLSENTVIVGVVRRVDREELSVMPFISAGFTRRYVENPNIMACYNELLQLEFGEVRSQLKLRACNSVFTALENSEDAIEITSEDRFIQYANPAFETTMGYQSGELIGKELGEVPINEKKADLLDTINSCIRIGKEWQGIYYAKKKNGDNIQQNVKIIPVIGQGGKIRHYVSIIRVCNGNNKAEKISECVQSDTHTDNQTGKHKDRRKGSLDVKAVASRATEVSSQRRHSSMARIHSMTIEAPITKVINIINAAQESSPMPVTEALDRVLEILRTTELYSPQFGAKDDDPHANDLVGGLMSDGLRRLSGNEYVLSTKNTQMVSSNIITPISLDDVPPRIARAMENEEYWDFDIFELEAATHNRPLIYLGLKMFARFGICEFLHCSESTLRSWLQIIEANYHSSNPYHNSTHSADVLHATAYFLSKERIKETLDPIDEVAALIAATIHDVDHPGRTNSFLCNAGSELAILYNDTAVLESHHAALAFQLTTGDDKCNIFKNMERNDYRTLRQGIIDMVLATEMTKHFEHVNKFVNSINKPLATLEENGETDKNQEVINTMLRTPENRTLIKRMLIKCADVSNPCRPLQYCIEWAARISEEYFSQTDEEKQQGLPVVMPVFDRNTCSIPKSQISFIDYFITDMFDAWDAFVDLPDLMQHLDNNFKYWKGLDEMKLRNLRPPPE

[9] = biological target: High affinity cGMP-specific 3',5'-cyclic phosphodiesterase 9A (Homo sapiens, UniProt O76083); assay: Inhibition of PDE9A2 (181 to 506 residues) (unknown origin) expressed in Escherichia coli BL21(DE3) using [3H]cGMP or [3H]cAMP as substrate after 15 mins by liquid scintillation counting method
High affinity cGMP-specific 3',5'-cyclic phosphodiesterase 9A, sequence (O76083 whole entry, the tested form may be a part): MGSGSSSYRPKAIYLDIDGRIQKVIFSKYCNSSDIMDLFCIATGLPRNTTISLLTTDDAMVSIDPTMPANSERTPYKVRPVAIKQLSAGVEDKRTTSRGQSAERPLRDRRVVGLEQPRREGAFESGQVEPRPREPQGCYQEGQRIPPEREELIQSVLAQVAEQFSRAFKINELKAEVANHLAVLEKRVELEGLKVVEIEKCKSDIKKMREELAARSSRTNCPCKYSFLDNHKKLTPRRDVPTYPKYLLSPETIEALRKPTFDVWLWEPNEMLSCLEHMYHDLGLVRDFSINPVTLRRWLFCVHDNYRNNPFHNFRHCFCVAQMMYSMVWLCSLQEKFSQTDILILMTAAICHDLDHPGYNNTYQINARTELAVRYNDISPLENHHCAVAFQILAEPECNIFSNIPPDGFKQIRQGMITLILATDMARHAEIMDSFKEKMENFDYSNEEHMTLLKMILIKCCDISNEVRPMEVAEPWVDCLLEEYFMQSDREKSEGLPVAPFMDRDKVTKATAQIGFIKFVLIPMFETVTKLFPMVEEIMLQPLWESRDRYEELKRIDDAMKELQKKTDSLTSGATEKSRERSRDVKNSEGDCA

[10] = biological target: cAMP and cAMP-inhibited cGMP 3',5'-cyclic phosphodiesterase 10A (Homo sapiens, UniProt Q9Y233); assay: Inhibition of PDE10A (449 to 770 residues) (unknown origin) expressed in Escherichia coli BL21(DE3) using [3H]cGMP or [3H]cAMP as substrate after 15 mins by liquid scintillation counting method
cAMP and cAMP-inhibited cGMP 3',5'-cyclic phosphodiesterase 10A, sequence (Q9Y233 whole entry, the tested form may be a part): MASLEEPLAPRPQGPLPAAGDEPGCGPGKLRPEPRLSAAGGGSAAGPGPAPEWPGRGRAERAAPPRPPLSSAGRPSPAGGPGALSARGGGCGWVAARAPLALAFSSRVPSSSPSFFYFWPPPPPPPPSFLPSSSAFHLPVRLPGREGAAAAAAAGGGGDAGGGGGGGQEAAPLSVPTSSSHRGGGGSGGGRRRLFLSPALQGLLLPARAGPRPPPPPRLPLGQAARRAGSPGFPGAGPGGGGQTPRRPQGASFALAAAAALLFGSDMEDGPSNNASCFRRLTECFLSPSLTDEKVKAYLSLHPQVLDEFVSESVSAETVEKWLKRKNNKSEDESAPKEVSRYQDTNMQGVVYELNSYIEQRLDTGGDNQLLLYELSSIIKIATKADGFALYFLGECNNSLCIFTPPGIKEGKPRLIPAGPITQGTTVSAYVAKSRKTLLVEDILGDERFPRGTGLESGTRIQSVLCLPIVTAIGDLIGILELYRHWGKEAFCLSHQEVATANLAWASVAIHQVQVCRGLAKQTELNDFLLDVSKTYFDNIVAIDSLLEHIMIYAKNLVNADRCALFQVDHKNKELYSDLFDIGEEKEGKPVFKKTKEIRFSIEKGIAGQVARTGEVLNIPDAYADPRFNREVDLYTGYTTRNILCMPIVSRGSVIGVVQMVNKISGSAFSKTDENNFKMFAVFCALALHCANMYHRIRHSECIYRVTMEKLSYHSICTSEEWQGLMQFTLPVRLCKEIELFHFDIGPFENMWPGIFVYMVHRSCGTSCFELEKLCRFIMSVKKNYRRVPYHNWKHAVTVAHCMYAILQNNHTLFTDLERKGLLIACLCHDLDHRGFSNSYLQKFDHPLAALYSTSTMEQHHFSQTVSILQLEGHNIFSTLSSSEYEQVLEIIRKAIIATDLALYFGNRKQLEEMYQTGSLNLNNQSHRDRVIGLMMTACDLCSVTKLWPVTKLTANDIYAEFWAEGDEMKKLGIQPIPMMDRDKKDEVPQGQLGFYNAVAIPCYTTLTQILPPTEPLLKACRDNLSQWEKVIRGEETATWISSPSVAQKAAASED

[11] = Apparent clearance in human liver microsomes at 0.5 uM; assay type: ADME, microsome; conditions: read-out: CLH(app)
[12] = Hepatic clearance in human microsomes at 0.5 uM; assay type: ADME, microsome; conditions: liver microsomes
Cytochrome P450 2C19 = Cytochrome P450 2C19 (Homo sapiens, UniProt P33261); assay: Inhibition of CYP2C19 in human microsomes in presence of NADPH; assay type: ADME
Cytochrome P450 2C19, sequence (P33261 whole entry): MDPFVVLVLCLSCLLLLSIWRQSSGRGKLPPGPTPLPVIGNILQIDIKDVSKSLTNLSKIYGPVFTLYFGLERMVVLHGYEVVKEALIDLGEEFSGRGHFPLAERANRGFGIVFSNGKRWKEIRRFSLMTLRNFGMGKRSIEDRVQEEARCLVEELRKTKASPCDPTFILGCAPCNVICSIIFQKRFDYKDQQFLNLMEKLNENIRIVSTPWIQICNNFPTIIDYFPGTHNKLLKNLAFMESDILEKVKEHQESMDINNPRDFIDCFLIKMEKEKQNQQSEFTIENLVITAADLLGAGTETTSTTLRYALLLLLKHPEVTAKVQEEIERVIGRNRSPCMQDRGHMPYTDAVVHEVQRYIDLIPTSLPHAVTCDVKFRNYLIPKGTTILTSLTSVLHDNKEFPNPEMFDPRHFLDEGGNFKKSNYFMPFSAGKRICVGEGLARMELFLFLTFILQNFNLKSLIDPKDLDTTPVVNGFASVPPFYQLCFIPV

Cytochrome P450 3A4 = Cytochrome P450 3A4 (Homo sapiens, UniProt P08684); assay: Inhibition of CYP3A4 in human microsomes in presence of NADPH; assay type: ADME
Cytochrome P450 3A4, sequence (P08684 whole entry): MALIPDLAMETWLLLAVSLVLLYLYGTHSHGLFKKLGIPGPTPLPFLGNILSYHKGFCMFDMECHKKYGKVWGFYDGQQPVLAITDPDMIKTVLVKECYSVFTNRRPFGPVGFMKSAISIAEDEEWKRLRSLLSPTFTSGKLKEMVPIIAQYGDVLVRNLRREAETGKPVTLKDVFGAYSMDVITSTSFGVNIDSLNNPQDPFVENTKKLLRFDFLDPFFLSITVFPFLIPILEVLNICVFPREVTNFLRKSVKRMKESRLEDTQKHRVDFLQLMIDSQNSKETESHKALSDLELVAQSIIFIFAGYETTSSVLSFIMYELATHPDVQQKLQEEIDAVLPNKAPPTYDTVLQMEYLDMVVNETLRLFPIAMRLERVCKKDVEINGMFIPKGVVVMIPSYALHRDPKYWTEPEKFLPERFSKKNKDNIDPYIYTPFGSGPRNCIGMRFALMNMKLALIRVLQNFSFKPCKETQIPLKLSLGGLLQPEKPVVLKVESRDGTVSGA

Mus musculus [13] = assay: Acute toxicity in Kunming mouse assessed as effect on water consumption at 1000 to 1500 mg/kg, po administered as single dose measured up to 2 weeks post dose; assay type: organism-based; conditions: in vivo, 336 h
Mus musculus [14] = assay: Acute toxicity in Kunming mouse assessed as effect on body weight at 1000 to 1500 mg/kg, po administered as single dose measured up to 2 weeks post dose; assay type: organism-based; conditions: in vivo, 336 h
Rattus norvegicus = assay: Reduction in MCT-induced increase in mean pulmonary arterial pressure in Wistar rat model of monocrotaline pulmonary arterial hypertension assessed as mean pulmonary arterial pressure at 5 mg/kg, po for 3 weeks (reference value: 32.74 mmHg); assay type: functional
Liver = assay: Drug metabolism in human liver microsomes assessed as metabolic rate; assay type: ADME, microsome

O=c1c2ccccc2oc2c(Cc3ccc4c(c3)OCO4)[nH]c(-c3nccs3)c12
half-life [1]: 5.17 h
AUC(0-t) [2]: 2000 ng·h/mL
AUC(0-t) [3]: 1700 ng·h/mL
AUC(0-inf) [4]: 1730 ng·h/mL
MRT last [5]: 2.14 h
IC50 [6]: 0.362 µM
IC50 [7]: > 10 µM
IC50 [8]: 6.22 µM
IC50 [9]: > 10 µM
IC50 [10]: 0.153 µM
CLint scaled at 0.5 µM [11]: 23.9 mL/min/kg
CLhep predicted at 0.5 µM [12]: 10.9 mL/min/kg
IC50 (Cytochrome P450 2C19): > 20 µM
IC50 (Cytochrome P450 3A4): > 25 µM
Activity (Mus musculus [13]): Non-Toxic
Activity (Mus musculus [14]): Non-Toxic
Activity (Rattus norvegicus): 18.65 mmHg
K (Liver): 0.0124
